Measurements taken from patent publication US10772890B2, “Use of myeloperoxidase (MPO) inhibitors or pharmaceutically acceptable salts thereof to treat multiple system atrophy (MSA) 938” (ASTRAZENECA AB, priority 2007, dated 2020).

Assays:
Assay type in all cases: in vivo
MSA mice (tg+3NP) [1] = experiment: Stride length test in MSA mouse model; conditions: high dose 180 μmol/kg p.o. twice daily, FIG. 3
Description: (§1) A total of 30 (PLP)-α-synuclein transgenic mice were used. Animals were housed at 12/12 hours dark/light cycle with free access to food and water in the animal facility of the Innsbruck Medical University. All experiments were performed in accordance with the Austrian law and after permission for animal experiments of the Federal Ministry for Education, Science, and Culture of Austria.
(§2) Low dose group (n=10) MSA mice (tg+3NP) treated with 1-(2-Isopropoxyethyl)-2-thioxo-1,2,3,5-tetrahydro-pyrrolo[3,2-d]pyrimidin-4-one (Compound I; prepared by AstraZeneca), 2×6 μmol/kg p.o.
(§3) High dose group (n=10) MSA mice (tg+3NP) treated with Compound I (prepared by AstraZeneca), 2×180 μmol/kg, p.o.
(§4) 1-(2-Isopropoxyethyl)-2-thioxo-1,2,3,5-tetrahydro-pyrrolo[3,2-d]pyrimidin-4-one (Compound I treatment) was started one week prior to the first 3NP intoxication and stopped three weeks after the first 3NP intoxication (see 3NP intoxication protocol below). […]
The stride length of the forelimbs and hindlimbs of the mice was measured after a habituation to the test for 3 days before its performance according to Fernagut et al. (Fernagut P O. et al. Neuroscience. 2002; 114:1005-17) with slight modification. […] After three runs, the stride length of the hindlimbs on each side was measured, excluding the beginning (7 cm) and the end (7 cm) of the run. The mean stride length for each limb was determined.

MSA mice (tg+3NP) [2] = experiment: Neuropathology: immunohistochemistry and stereological neuron counts in MSA mouse model
Description: as §1, §2, §3
(§5) 1-(2-Isopropoxyethyl)-2-thioxo-1,2,3,5-tetrahydro-pyrrolo[3,2-d]pyrimidin-4-one (Compound I treatment) was started one week prior to the first 3NP intoxication and stopped three weeks after the first 3NP intoxication (see 3NP intoxication protocol below). Animals underwent behavioral tests during week 3-4 after the beginning of the experiment. On day 28 animals were perfused under deep thiopental anesthesia and the brains were collected for histopathological analysis of neuronal loss and gliosis.
Mice were intoxicated chronically with 3NP with slowly increasing doses of toxin according to a previously used scheme (i.e. 4×10 mg/kg, 4×20 mg/kg, 4×40 mg/kg, 4×50 mg/kg intraperitoneal injections every 12th hour for a period of 8 days) to model MSA (Stefanova N. et al. Am. J. Pathol. 2005; 166:869-76)
The drug and vehicle (0.1 mol/L meglumine with 20% w/v hydroxypropyl-β-cyclodextrin, pH 10.8) were stored at 4° C. […]
(§6) Stereology was applied using a computer-assisted image analysis system (Nikon E-800 microscope, CCD video camera, Optronics MicroFire, Goleta, USA; Stereo Investigator Software, MicroBrightField Europe e.K., Magdeburg, Germany). […] Purkinje cells were counted in a region outlined to include only the Purkinje cell layer as previously reported (German D C. et al. Neuroscience. 2001; 105:999-1005). All data were expressed as mean value±SEM. […]

MSA mice (tg+3NP) [3] = experiment: Open field activity (Flex Field Activity System) in MSA mouse model; conditions: high dose 180 μmol/kg p.o. twice daily, FIG. 2
Description: as §1, §2, §3
as §5, with “gliosis. […]” for “gliosis.”

MSA mice (tg+3NP) [4] = experiment: Microglial activation (optical density) in substantia nigra and striatum of MSA mice; conditions: high dose 180 μmol/kg p.o. twice daily, FIG. 6
Description: as §1, §2, §3, §4, §6

MSA mice (tg+3NP) [5] = experiment: Motor clinical scale evaluation in MSA mouse model; conditions: p.o. twice daily, compared to vehicle treated mice, FIG. 1
Text: A novel mouse model of MSA has been developed by inducing oxidative stress in transgenic mice with oligodendroglial α-synuclein expression (described herein). This model reproduces the cardinal neuropathological features of the disease including striatonigral degeneration (SND), olivopontocerebellar atrophy (OPCA), astrogliosis and microgliosis combined with oligodendroglial insoluble α-synuclein inclusions. Mitochondrial inhibition by 3NP in the presence of glial cytoplasmic inclusions in transgenic mice induces a selective neuronal cell death pattern typical for MSA in these animals (Stefanova N. et al. Am. J. Pathol. 2005; 166:869-76).
Thus, in the present invention, MPO inhibitors have been use to suppress MPO activity in an MSA mouse model consisting of an oligodendroglial α-SYN overexpression in transgenic mice exposed to mitochondrial inhibition by 3-nitropropionic acid (3NP). The effects were followed by application of established immunohistological and behavioral methods to evaluate the participation of MPO in the pathogenesis of MSA and the possible neuroprotective effects of in an MSA model.
A total of 30 (PLP)-α-synuclein transgenic mice were used. Animals were housed at 12/12 hours dark/light cycle with free access to food and water in the animal facility of the Innsbruck Medical University. […]

## CC(C)OCCn1c(=S)[nH]c(=O)c2[nH]ccc21 [Compound I, 1-(2-Isopropoxyethyl)-2-thioxo-1,2,3,5-tetrahydro-pyrrolo[3,2-d]pyrimidin-4-one]
MSA mice (tg+3NP) [1]
  stride length test performance (left and right hindlimbs): significant improvement
MSA mice (tg+3NP) [2]; high dose 180 μmol/kg p.o. twice daily, FIG. 4
  striatonigral degeneration (TH immunopositive cells in substantia nigra, dopaminergic terminals in striatum, striatal DARPP-32 immunoreactive neurons): neuroprotective
MSA mice (tg+3NP) [2]; high dose 180 μmol/kg p.o. twice daily, FIG. 5
  olivopontocerebellar atrophy (inferior olivary complex, pontine nuclei, Purkinje cells in the cerebellum): neuroprotective
MSA mice (tg+3NP) [2]; summary of findings, dose not stated
  neuroprotection (neurons preserved in substantia nigra pars compacta, striatum, cerebellar cortex, pontine nuclei, inferior olivary complex): significant neuroprotection
MSA mice (tg+3NP) [3]
  flex field performance (rearing and open field activity): significant improvement
MSA mice (tg+3NP) [4]
  microglial activation in substantia nigra and striatum: suppression of microglial activation
MSA mice (tg+3NP) [5]
  mean daily motor score: significant improvement
